Data as given in paper PMC8908036, “N-Acetyldopamine dimers from Oxya chinensis sinuosa attenuates lipopolysaccharides induced inflammation and inhibits cathepsin C activity” (Computational and Structural Biotechnology Journal, 2022).

Biological target: T1, cathepsin C (Mus musculus, UniProt P97821)
T1 construct: gene Ctsc
Test: colorimetric enzyme inhibition with H-Gly-Phe-β-naphthylamide; Lineweaver-Burk kinetics and secondary plots (IC50 […]; Kis […])
Type: biochemical

T1 sequence (P97821 25-134): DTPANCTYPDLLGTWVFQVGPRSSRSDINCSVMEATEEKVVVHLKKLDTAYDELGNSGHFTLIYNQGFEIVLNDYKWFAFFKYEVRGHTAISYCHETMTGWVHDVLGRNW
T1 sequence (P97821 231-462): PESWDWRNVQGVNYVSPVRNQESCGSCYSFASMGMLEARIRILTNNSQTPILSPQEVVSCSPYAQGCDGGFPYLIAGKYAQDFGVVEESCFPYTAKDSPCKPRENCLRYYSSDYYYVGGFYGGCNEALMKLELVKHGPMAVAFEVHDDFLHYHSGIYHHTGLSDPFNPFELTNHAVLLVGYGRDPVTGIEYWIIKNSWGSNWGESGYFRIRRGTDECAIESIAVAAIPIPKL

Ki: 71.6 ± 10.2 µM
Structure (SMILES): CC(=O)NCCc1ccc2c(c1)O[C@H](c1ccc(O)c(O)c1)[C@@H](NC(C)=O)O2 [compound 1, (2R,3S)-2-(3′,4′-dihydroxyphenyl)-3-acetylamino-7-(N-acetyl-2″-aminoethyl)-1,4-benzodioxane]
